These results are taken from US11739098B2 (BRISTOL-MYERS SQUIBB COMPANY, priority 2017, dated 2023).

Common to all, as to format: cell-based
One assay deals with T1, human TLR8 (Homo sapiens, UniProt Q9NR97).
T1 construct: host or cells: HEK-Blue cells (HEK293-derived reporter line)
T1 sequence (Q9NR97 27-1041): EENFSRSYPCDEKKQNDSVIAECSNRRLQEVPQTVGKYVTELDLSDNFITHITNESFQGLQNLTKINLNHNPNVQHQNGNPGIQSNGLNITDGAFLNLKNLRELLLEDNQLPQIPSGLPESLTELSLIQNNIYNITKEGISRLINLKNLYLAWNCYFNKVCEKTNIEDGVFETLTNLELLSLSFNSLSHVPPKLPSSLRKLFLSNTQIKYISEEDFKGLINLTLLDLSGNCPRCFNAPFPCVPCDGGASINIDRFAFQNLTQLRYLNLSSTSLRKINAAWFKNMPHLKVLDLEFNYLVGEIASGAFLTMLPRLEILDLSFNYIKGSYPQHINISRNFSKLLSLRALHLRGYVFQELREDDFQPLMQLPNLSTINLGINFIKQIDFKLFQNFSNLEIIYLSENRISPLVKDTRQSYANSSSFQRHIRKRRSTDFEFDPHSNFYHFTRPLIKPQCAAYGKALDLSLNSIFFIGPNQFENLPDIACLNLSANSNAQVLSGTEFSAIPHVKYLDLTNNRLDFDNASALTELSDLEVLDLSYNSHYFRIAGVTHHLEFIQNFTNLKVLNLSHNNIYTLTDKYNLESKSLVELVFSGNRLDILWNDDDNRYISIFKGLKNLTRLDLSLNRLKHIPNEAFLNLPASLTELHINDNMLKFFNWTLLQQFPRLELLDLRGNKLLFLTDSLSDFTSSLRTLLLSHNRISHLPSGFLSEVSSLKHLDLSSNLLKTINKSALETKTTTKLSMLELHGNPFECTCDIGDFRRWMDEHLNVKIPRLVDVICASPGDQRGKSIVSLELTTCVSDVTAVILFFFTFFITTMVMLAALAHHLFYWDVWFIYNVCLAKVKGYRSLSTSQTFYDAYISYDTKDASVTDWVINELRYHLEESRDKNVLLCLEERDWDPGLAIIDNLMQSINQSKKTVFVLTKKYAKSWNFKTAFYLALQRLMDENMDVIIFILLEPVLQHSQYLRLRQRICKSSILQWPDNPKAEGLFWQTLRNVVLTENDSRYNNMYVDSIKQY
The assay is described as follows: TLR8 inhibition reporter assay (HEK-Blue cells, SEAP reporter, R848 stimulation). Conditions: HEK-Blue cells overexpressing human TLR8, SEAP reporter, R848 15.9 μM. Summed up:
(§1)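 HEK-Blue cells overexpressing the receptor, with NF-κB/AP-1-driven SEAP, were pre-treated 30 min at room temperature with compound (0.05 nM–50 μM), then stimulated with gardiquimod 7.5 μM (TLR7), R848 15.9 μM (TLR8) or ODN2006 5 nM (TLR9). SEAP was read after 22 h at 37 °C as percent inhibition.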
A general note: Reporter assays use an easily measured gene product as a stand-in for the process of interest.

Another assay concerns the target T2, human TLR7 (Homo sapiens, UniProt Q9NYK1).
T2 construct: host or cells: HEK-Blue cells (HEK293-derived reporter line)
T2 sequence (Q9NYK1 27-1049): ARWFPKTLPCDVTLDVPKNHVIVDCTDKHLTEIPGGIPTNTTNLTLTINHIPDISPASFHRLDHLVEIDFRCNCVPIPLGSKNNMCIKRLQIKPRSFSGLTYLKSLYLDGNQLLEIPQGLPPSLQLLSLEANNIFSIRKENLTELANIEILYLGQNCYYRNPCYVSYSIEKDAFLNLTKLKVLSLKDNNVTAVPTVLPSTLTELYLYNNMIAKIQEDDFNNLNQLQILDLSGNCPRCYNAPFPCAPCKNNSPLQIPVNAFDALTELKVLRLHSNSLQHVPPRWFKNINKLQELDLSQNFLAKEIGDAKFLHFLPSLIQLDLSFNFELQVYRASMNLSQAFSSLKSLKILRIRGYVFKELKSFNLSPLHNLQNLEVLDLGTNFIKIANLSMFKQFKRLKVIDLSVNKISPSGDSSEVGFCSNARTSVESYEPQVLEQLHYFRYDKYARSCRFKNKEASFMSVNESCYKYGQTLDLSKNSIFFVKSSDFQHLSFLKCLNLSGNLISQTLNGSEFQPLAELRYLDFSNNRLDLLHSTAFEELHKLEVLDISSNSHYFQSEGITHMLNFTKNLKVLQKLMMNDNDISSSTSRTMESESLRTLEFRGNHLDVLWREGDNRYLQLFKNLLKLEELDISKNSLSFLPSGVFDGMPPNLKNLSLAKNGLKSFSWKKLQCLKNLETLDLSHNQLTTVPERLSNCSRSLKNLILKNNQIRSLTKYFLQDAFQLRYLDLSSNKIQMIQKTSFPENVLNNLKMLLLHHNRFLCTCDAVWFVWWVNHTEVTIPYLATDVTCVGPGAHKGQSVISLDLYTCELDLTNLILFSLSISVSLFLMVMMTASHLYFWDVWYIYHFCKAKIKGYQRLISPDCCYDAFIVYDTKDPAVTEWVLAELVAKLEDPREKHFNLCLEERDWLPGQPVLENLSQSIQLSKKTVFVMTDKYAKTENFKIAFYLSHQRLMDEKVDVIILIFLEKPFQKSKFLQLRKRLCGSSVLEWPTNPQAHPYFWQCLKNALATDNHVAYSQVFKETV
Briefly: TLR7 inhibition reporter assay (HEK-Blue cells, SEAP reporter, gardiquimod stimulation). Conditions: HEK-Blue cells overexpressing human TLR7, SEAP reporter, gardiquimod 7.5 μM. In a few lines: as §1

The next assay has as its target T3, human TLR9 (Homo sapiens, UniProt Q9NR96).
T3 construct: host or cells: HEK-Blue cells (HEK293-derived reporter line)
T3 sequence (Q9NR96 26-1032): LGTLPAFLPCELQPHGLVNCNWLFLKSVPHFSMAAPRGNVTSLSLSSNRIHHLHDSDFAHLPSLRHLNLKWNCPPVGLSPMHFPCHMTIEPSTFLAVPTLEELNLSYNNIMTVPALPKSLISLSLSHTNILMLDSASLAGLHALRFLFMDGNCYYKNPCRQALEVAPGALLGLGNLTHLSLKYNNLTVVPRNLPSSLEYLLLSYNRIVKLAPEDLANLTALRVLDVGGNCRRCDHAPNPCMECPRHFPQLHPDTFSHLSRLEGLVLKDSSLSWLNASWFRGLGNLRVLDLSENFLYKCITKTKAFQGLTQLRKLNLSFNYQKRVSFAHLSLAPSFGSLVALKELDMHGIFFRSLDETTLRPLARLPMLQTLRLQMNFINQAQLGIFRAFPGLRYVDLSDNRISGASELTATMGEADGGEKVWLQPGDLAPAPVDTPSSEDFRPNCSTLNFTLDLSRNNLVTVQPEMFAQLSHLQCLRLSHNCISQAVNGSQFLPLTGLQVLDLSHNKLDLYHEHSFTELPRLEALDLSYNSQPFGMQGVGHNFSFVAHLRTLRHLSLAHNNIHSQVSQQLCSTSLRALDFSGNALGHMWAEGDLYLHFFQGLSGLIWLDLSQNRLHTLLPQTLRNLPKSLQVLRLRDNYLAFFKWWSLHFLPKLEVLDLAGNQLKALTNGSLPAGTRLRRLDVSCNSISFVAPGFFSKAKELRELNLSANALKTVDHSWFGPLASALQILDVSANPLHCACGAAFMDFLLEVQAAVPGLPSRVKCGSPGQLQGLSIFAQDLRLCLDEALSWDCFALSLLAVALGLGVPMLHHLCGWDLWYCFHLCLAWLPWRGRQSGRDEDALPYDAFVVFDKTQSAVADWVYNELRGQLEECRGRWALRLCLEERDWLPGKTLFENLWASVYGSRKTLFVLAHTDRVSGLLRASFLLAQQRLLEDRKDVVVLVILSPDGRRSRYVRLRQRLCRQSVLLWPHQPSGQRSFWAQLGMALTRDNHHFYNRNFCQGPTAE
Briefly: TLR9 inhibition reporter assay (HEK-Blue cells, SEAP reporter, ODN2006 stimulation). The following applies: HEK-Blue cells overexpressing human TLR9, SEAP reporter, ODN2006 5 nM. Summed up: as §1

In general, IC50 refers to the midpoint of a concentration-inhibition curve.

Consider `CC(C)c1c(-c2ccnc3[nH]ncc23)[nH]c2ccc(C3CCN(Cc4ccccc4OCCCN(C)C)CC3)cc12` [Example 921, 3-(2-((4-(3-isopropyl-2-(1H-pyrazolo[3,4-b]pyridin-4-yl)-1H-indol-5-yl)piperidin-1-yl)methyl)phenoxy)-N,N-dimethylpropan-1-amine], for which the 50% inhibitory concentration (IC50) on human TLR8 was below 100 nM; on human TLR7, 100 to 1000 nM; at human TLR9, 100 to 1000 nM.
As to `CC(C)c1c(-c2ccnc3[nH]ncc23)[nH]c2ccc(C3CCN(C(=O)CN(C)C(C)C)CC3)cc12` [Example 585, 2-(isopropyl(methyl)amino)-1-(4-(3-isopropyl-2-(1H-pyrazolo[3,4-b]pyridin-4-yl)-1H-indol-5-yl)piperidin-1-yl)ethan-1-one], the 50% inhibitory concentration (IC50) at human TLR8 was below 100 nM; against human TLR7 it was below 100 nM; against human TLR9, 1000 to 50000 nM.
For `Cc1cc(-c2[nH]c3ccc(C4CCNCC4)cc3c2C(C)C)cn2nnnc12` [Example 75, 6-(3-isopropyl-5-(piperidin-4-yl)-1H-indol-2-yl)-8-methyltetrazolo[1,5-a]pyridine], the figures for the IC50 against human TLR8, at human TLR7 and against human TLR9 were below 100 nM, below 100 nM and 100 to 1000 nM, respectively.
`COc1c(C)c(-c2[nH]c3ccc(C4CCN(C(=O)CN(C)C)CC4)cc3c2C(C)C)nn2ncnc12` [Example 451, 2-(dimethylamino)-1-(4-(3-isopropyl-2-(8-methoxy-7-methyl-[1,2,4]triazolo[1,5-b]pyridazin-6-yl)-1H-indol-5-yl)piperidin-1-yl)ethan-1-one]: the figures for the concentration for half-maximal inhibition (IC50) against human TLR8, against human TLR7 and against human TLR9 were below 100 nM, below 100 nM and 1000 to 50000 nM, respectively.
For the molecule `CC(C)c1c(-c2ccc3[nH]nc(N)c3c2)[nH]c2ccc(C3CCNCC3)cc12` [Example 93, 5-(3-isopropyl-5-(piperidin-4-yl)-1H-indol-2-yl)-1H-indazol-3-amine], the figures for the IC50 against human TLR8, at human TLR7 and on human TLR9 were below 100 nM, below 100 nM and 100 to 1000 nM, respectively.
In the case of `Cc1cc2cc(-c3[nH]c4ccc(C5CCN(CC(=O)N(C)C)CC5)cc4c3C(C)C)ccn2n1` [Example 323, 2-(4-(3-isopropyl-2-(2-methylpyrazolo[1,5-a]pyridin-5-yl)-1H-indol-5-yl)piperidin-1-yl)-N,N-dimethylacetamide], the IC50 fell in the range of 1000 to 50000 nM on human TLR8, 100 to 1000 nM against human TLR7 and 1000 to 50000 nM on human TLR9.
For `Cc1cc(-c2[nH]c3ccc(C4CCN(CC(=O)N(C)C)CC4)cc3c2C(C)C)cc2cncn12` [Example 439, 2-(4-(3-isopropyl-2-(5-methylimidazo[1,5-a]pyridin-7-yl)-1H-indol-5-yl)piperidin-1-yl)-N,N-dimethylacetamide], the IC50 was below 100 nM at human TLR8, below 100 nM on human TLR7 and 1000 to 50000 nM against human TLR9.
For `Cc1c(-c2ccnc3cn[nH]c23)[nH]c2ccc(C3CCNCC3)cc12` [Example 55, 7-(3-methyl-5-(piperidin-4-yl)-1H-indol-2-yl)-1H-pyrazolo [4,3-b]pyridine], the IC50 against human TLR8 was 1000 to 50000 nM; against human TLR7, 100 to 1000 nM; at human TLR9, 1000 to 50000 nM.
As for `CCc1c(C)c(-c2[nH]c3ccc(C4CCN(CC(=O)NC)CC4)cc3c2C(C)C)cn2ccnc12` [Example 418, 2-(4-(2-(8-ethyl-7-methylimidazo[1,2-a]pyridin-6-yl)-3-isopropyl-1H-indol-5-yl)piperidin-1-yl)-N-methylacetamide], the IC50 on human TLR8 was 100 to 1000 nM; against human TLR7, below 100 nM; against human TLR9, 1000 to 50000 nM.
Consider `CC(C)c1c(-c2ccnc3[nH]ncc23)[nH]c2ccc(C3CCN(C(=O)c4cn[nH]c4)CC3)cc12` [Example 610, (4-(3-isopropyl-2-(1H-pyrazolo[3,4-b]pyridin-4-yl)-1H-indol-5-yl)piperidin-1-yl)(1H-pyrazol-4-yl)methanone], for which the IC50 fell in the range of 100 to 1000 nM at human TLR8, 100 to 1000 nM against human TLR7 and 1000 to 50000 nM against human TLR9.
Regarding `Cc1c(-c2ncnc3[nH]ncc23)[nH]c2ccc(C3CCN(C4CCN(C(C)C)CC4)CC3)cc12` [Example 816, 4-(5-(1′-isopropyl-[1,4′-bipiperidin]-4-yl)-3-methyl-1H-indol-2-yl)-1H-pyrazolo[3,4-d]pyrimidine], the IC50 against human TLR8 was below 100 nM; at human TLR7 it was 100 to 1000 nM; at human TLR9 it was below 100 nM.
As to `CC(C)c1c(-c2ccc3nccn3c2)[nH]c2ccc(C3CCN(C(=O)[C@H]4CCCNC4)CC3)cc12` [Example 640, (S)-(4-(2-(imidazo[1,2-a]pyridin-6-yl)-3-isopropyl-1H-indol-5-yl)piperidin-1-yl)(piperidin-3-yl)methanone], the IC50 on human TLR8 is 100 to 1000 nM; on human TLR7, below 100 nM; against human TLR9, 1000 to 50000 nM.
For the molecule `CCc1c[nH]c2nccc(-c3[nH]c4ccc(C5CCNCC5)cc4c3C(C)C)c12` [Example 222, 3-ethyl-4-(3-isopropyl-5-(piperidin-4-yl)-1H-indol-2-yl)-1H-pyrrolo[2,3-b]pyridine], the 50% inhibitory concentration (IC50) on human TLR8 is below 100 nM; against human TLR7 it was 100 to 1000 nM; against human TLR9 it was 1000 to 50000 nM.
